Laboratory results published in patent US9815788B2, “Anti-angiogenic compounds” (University College Dublin National University of Ireland, …, priority 2012, dated 2017).
Entries after “also recorded” stand apart in the source; their conditions may differ.

Tests used:
[1] = tested on: zebrafish hyaloid vasculature; test: Quantification of primary hyaloid vasculature branch number in Tg(fli1:EGFP) zebrafish; assay type: in vivo; settings: for dose-dependent inhibition of development of hyaloid vessels: decreasing doses 20, 10, 7.5, 5, 2.5, 1 and/or 0.5 μM; for inhibition of developmental angiogenesis of the hyaloid vasculature (number of primary hyaloid vessels): typically 10 μM or 5 μM, from 24 hpf, vs DMSO control
Protocol: (§1) All experiments were carried out under ethical approval granted by the UCD animal research ethics committee. Tg(fli1:EGFP) zebrafish were maintained according to standard procedures on a 14 hr light/10 hr dark cycle at 28° C. Embryos were obtained by natural spawning and developmental stages established by time and morphological criteria. […] Larvae were euthanised, and fixed in 4% PFA at 4° C. overnight before analysis.
Overall patterning of the vasculature (fin, gut and intersegmental vessels) was examined for abnormalities. Right lenses were dissected from the larvae and transferred to depression slides for observation under epi-fluorescence in the Olympus SZX16. Patterning of the hyaloid vessels on the treated larval lenses was compared to DMSO controls and the archetypal pattern previously described (Alvarez et al., 2007; Alvarez et al., 2009).
as §1, with “analysis. Lenses were dissected from the larvae and transferred to depression slides for observation under epi-fluorescence in the Olympus SZX16. Patterning of the hyaloid vessels on the treated larval lenses was compared to DMSO controls and the archetypal pattern previously described (Alvarez et al., 2007; Alvarez et al., 2009).” for “analysis.”

[2] = tested on: zebrafish intersegmental vessels; test: Quantification of intersegmental vessel number in zebrafish; assay type: in vivo; settings: 10 μM, from 6 hpf
Protocol: […] Larvae were manually dechorionated, euthanised, and fixed in 4% PFA at 4° C. overnight before analysis. The larvae were then washed with PBS and transferred to depression slides for observation under epi-fluorescence in an Olympus SZX16 fluorescent microscope. The number of intersegmental vessels was counted and the average number was graphed for each drug.
Larvae were manually dechorionated, euthanised, and fixed in 4% PFA at 4° C. overnight before analysis. The larvae were then washed with PBS and transferred to depression slides for observation under epi-fluorescence in an Olympus SZX16 fluorescent microscope. The number of intersegmental vessels was counted and the average number was graphed for each drug.

[3] = tested on: OE33R radio-resistant oesophageal adenocarcinoma cells; test: Quantification of glycolysis (ECAR, Seahorse), OE33R; assay type: cell-based, human; settings: 10 μM, 24 hours
Protocol: OE33P radio-sensitive and OE33R radio-resistant oesophageal adenocarcinoma cells were used to test the effects of compounds 11B HCl, 11B CC11 HCl, 11B CC16 HCl, 11B 471 and 11B 268 on glycolysis. Cells were maintained in RPMI media supplemented with 10% foetal calf serum, penicillin (100 U/ml) and streptomycin (100 μg/ml). A total of 11,000 or 13,000 cells, in 100 μl media, were seeded per well in 24 well plates and left to incubate for 24 hours, with an additional 150 μl media added after 5 hours. The media was replaced with solutions containing 10 μM of 11B HCl, […], 11B CC16 HCl, 11B 471, 11B 268 or fresh media as a control. Each drug had 6 replicates. After 24 hours of treatment, media was replaced with modified DMEM supplemented with 0.5 mM glucose. Rates of glycolysis were determined using Seahorse Biosciences metabolism technology. The media was disposed and the cells washed with PBS. The cells were fixed with 1% glutaraldehyde for 15 minutes and then stained with crystal violet for 30 minutes. The plates were blotted and dried overnight. The cells were resuspended with 1% TritonX-100 and shaken for 15 minutes. The absorbance was read on a spectrophotometer at 590 nm. Rates of glycolysis were then normalised to cell number.
OE33P radiosensitive oesophageal adenocarcinoma cells were used to test the effects of the compound 11B_ZHCl on glycolysis. Cells were maintained in RPMI media supplemented with 10% foetal calf serum, penicillin (100 U/ml) and streptomycin (100 μg/ml). A total of 11,000 cells, in 100 μl media, were seeded per well in 24 well plates and left to incubate for 24 hours, with an additional 150 μl media added after 5 hours. The media was replaced with solutions containing 10 μM of 11B_ZHCl or fresh media as a control. Each treatment had 6 replicates. After 24 hours of treatment, media was replaced with modified DMEM supplemented with 0.5 mM glucose. Rates of glycolysis were determined using Seahorse Biosciences metabolism technology. […] The absorbance was read on a spectrophotometer at 590 nm. […] No changes in ECAR were detected in OE33R treated cells.

[4] = tested on: OE33P radio-sensitive oesophageal adenocarcinoma cells; test: Cell number after 24 hours drug treatment (crystal violet absorbance), OE33P; assay type: cell-based, human; settings: 10 μM
Protocol: (§2) OE33P radio-sensitive and OE33R radio-resistant oesophageal adenocarcinoma cells were used to test the effects of the compounds 11B HCl, […], 11B CC16 HCl, 11B 471 and 11B 268 on cell number. Cells were maintained in RPMI media supplemented with 10% foetal calf serum, penicillin (100 U/ml) and streptomycin (100 gig/ml). A total of 11.000 or 13,000 cells, in 100 μl media, were seeded per well in 24 well plates and left to incubate for 24 hours, with an additional 150 μl media added after 5 hours. The media was replaced with solutions containing 10 μM of 11B HCl, 11B CC11 HCl, 11B CC16 HCl, 11B 471, 11B 268 or fresh media as a control. Each drug had 6 replicates. After 24 hours of treatment, the cells were fixed with 1% glutaraldehyde for 15 minutes and then stained with crystal violet for 30 minutes. The plates were blotted and dried overnight. The cells were resuspended with 1% TritonX-100 and shaken for 15 minutes. The absorbance was read on a spectrophotometer at 590 nm.
(§3) OE33P radiosensitive and OE33R radioresistant cells were used to test the effects of the compound 11B_Z_HCl on toxicity. Cells were maintained in RPMI media supplemented with 10% foetal calf serum, penicillin (100 U/ml) and streptomycin (100 μg/ml). A total of 11,000 cells, in 100 μl media, were seeded per well in 24 well plates and left to incubate for 24 hours, with an additional 150 μl media added after 5 hours. The media was replaced with solutions containing 10 μM of 11B_Z_HCl or fresh media as a control. Each treatment had 6 replicates. After 24 hours of treatment, the cells were fixed with 1% glutaraldehyde for 15 minutes and then stained with crystal violet for 30 minutes. The plates were blotted and dried overnight. The cells were resuspended with 1% TritonX-100 and shaken for 15 minutes. The absorbance was read on a spectrophotometer at 590 nm.

[5] = tested on: OE33R radio-resistant oesophageal adenocarcinoma cells; test: Cell number after 24 hours drug treatment (crystal violet absorbance), OE33R; assay type: cell-based, human; settings: 10 μM
Protocol: as §2, §3

[6] = tested on: OE33P radiosensitive oesophageal adenocarcinoma cells; test: Quantification of oxidative phosphorylation (OCR, Seahorse), OE33P; assay type: cell-based, human; settings: 10 μM, 24 hours
Protocol: OE33P radiosensitive and OE33R radio-resistant oesophageal adenocarcinoma cells were used to test the effects of the compounds 11B HCl, 11B CC11 HCl, 11B CC16 HCl, 11B 471 and 11B 268 on oxidative phosphorylation. Cells were maintained in RPMI media supplemented with 10% foetal calf serum, penicillin (100 U/ml) and streptomycin (100 μg/ml). A total of 11,000-13,000 cells, in 100 μl media, were seeded per well in 24 well plates and left to incubate for 24 hours, with an additional 150 μl media added after 5 hours. The media was replaced with solutions containing 10 μM of 11B HCl, 11B CC11 HCl, 11B CC16 HCl, 11B 471, 11B 268 or fresh media as a control. Each drug had 6 replicates. After 24 hours of treatment, media was replaced with modified DMEM supplemented with 0.5 mM glucose. Rates of oxidative phosphorylation were determined using Seahorse Biosciences metabolism technology. The media was disposed and the cells washed with PBS. The cells were fixed with 1% glutaraldehyde for 15 minutes and then stained with crystal violet for 30 minutes. The plates were blotted and dried overnight. The cells were resuspended with 1% TritonX-100 and shaken for 15 minutes. The absorbance was read on a spectrophotometer at 595 nm. Rates of oxidative phosphorylation were then normalised to cell number.
OE33P radiosensitive and OE33R radioresistant oesophageal adenocarcinoma cells were used to test the effects of the compound 11B_Z_HCl on oxidative phosphorylation. Cells were maintained in RPMI media supplemented with 10%0/foetal calf serum, penicillin […]) and streptomycin (100 μg/ml). A total of 11,000 cells, in 100 μl media, were seeded per well in 24 well plates and left to incubate for 24 hours, with an additional 150 μl media added after 5 hours. The media was replaced with solutions containing 10 μM of 11B_Z_HCl or fresh media as a control. Each treatment had 6 replicates. After 24 hours of treatment, media was replaced with modified DMEM supplemented with 0.5 mM glucose. Rates of oxidative phosphorylation were determined using Seahorse Biosciences metabolism technology. Rates of oxidative phosphorylation were then normalised to cell number.

Structure (SMILES): C(=Cc1ccc2ccccc2n1)c1cccnc1 [Compound 11B-471, 2-[2-(3-pyridinyl)vinyl]quinoline]
- dose-dependent inhibition of development of hyaloid vessels [1]: inhibit developmental angiogenesis of zebrafish hyaloid vasculature in a dose-dependent statistically significant manner
- inhibition of developmental angiogenesis of the hyaloid vasculature (number of primary hyaloid vessels) [1]: inhibit developmental angiogenesis of the zebrafish hyaloid vasculature in a statistically significant manner
- inhibition of developmental angiogenesis of intersegmental vessels (number of intersegmental vessels) [2]: inhibit developmental angiogenesis of zebrafish intersegmental vessels in a statistically significant manner
- extracellular acidification rate (ECAR), a measure of glycolysis [3]: significantly reduce
- cell number, measured by % absorbance [4]: did not significantly reduce cell number
- cell number, measured by % absorbance [5]: did not significantly reduce cell number

Structure (SMILES): COc1ccccc1C=Cc1ccc2ccccc2n1 [Compound 11B-268, 2-(2-(2-Methoxyphenyl)vinyl)quinoline]
- dose-dependent inhibition of development of hyaloid vessels [1]: dose-dependent effect; also recorded: inhibit developmental angiogenesis of zebrafish hyaloid vasculature in a dose-dependent statistically significant manner
- inhibition of developmental angiogenesis of the hyaloid vasculature (number of primary hyaloid vessels) [1]: inhibit developmental angiogenesis of the zebrafish hyaloid vasculature in a statistically significant manner
- cell number, measured by % absorbance [4]: did not significantly reduce cell number
- oxygen consumption rate (OCR), a measure of oxidative phosphorylation [6]: significantly reduce
- cell number, measured by % absorbance [5]: did not significantly reduce cell number
